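Tested at 5 concentrations; 48 h exposure; 96-well plates; endpoints linearly interpolated, else capped at highest concentration. GI50: concentration for 50% inhibition of growth. TGI is the concentration that stops growth completely.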
Legend:
Assay in all cases: growth of human tumour cells (NCI), 48 h
786-0 renal = tested on: 786-0 renal
A498 renal = tested on: A498 renal
A549 NSCLC = tested on: A549 NSCLC
ACHN renal = tested on: ACHN renal
BT-549 breast = tested on: BT-549 breast
CAKI-1 renal = tested on: CAKI-1 renal
CCRF-CEM leukemia = tested on: CCRF-CEM leukemia
COLO 205 colon = tested on: COLO 205 colon
DU-145 prostate = tested on: DU-145 prostate
EKVX NSCLC = tested on: EKVX NSCLC
HCC-2998 colon = tested on: HCC-2998 colon
HCT-116 colon = tested on: HCT-116 colon
HCT-15 colon = tested on: HCT-15 colon
HL-60(TB) leukemia = tested on: HL-60(TB) leukemia
HOP-62 NSCLC = tested on: HOP-62 NSCLC
HOP-92 NSCLC = tested on: HOP-92 NSCLC
HS 578T breast = tested on: HS 578T breast
HT29 colon = tested on: HT29 colon
IGROV1 ovarian = tested on: IGROV1 ovarian
K-562 leukemia = tested on: K-562 leukemia
KM12 colon = tested on: KM12 colon
LOX IMVI melanoma = tested on: LOX IMVI melanoma
M14 melanoma = tested on: M14 melanoma
MALME-3M melanoma = tested on: MALME-3M melanoma
MCF7 breast = tested on: MCF7 breast
MDA-MB-231 breast = tested on: MDA-MB-231 breast
MDA-MB-435 = tested on: MDA-MB-435
MDA-MB-468 breast = tested on: MDA-MB-468 breast
MOLT-4 leukemia = tested on: MOLT-4 leukemia
NCI-H226 lung = tested on: NCI-H226 lung
NCI-H23 lung = tested on: NCI-H23 lung
NCI-H460 lung = tested on: NCI-H460 lung
NCI-H522 lung = tested on: NCI-H522 lung
NCI/ADR-RES ovarian = tested on: NCI/ADR-RES ovarian
OVCAR-3 ovarian = tested on: OVCAR-3 ovarian
OVCAR-4 ovarian = tested on: OVCAR-4 ovarian
OVCAR-5 ovarian = tested on: OVCAR-5 ovarian
OVCAR-8 ovarian = tested on: OVCAR-8 ovarian
PC-3 prostate = tested on: PC-3 prostate
RPMI-8226 leukemia = tested on: RPMI-8226 leukemia
RXF 393 renal = tested on: RXF 393 renal
SF-268 CNS = tested on: SF-268 CNS
SF-295 CNS = tested on: SF-295 CNS
SF-539 CNS = tested on: SF-539 CNS
SK-MEL-2 melanoma = tested on: SK-MEL-2 melanoma
SK-MEL-28 melanoma = tested on: SK-MEL-28 melanoma
SK-MEL-5 melanoma = tested on: SK-MEL-5 melanoma
SK-OV-3 ovarian = tested on: SK-OV-3 ovarian
SN12C renal = tested on: SN12C renal
SNB-19 CNS = tested on: SNB-19 CNS
SNB-75 CNS = tested on: SNB-75 CNS
SR leukemia = tested on: SR leukemia
SW-620 colon = tested on: SW-620 colon
T-47D breast = tested on: T-47D breast
TK-10 renal = tested on: TK-10 renal
U251 CNS = tested on: U251 CNS
UACC-257 melanoma = tested on: UACC-257 melanoma
UACC-62 melanoma = tested on: UACC-62 melanoma
UO-31 renal = tested on: UO-31 renal

Compound `Cc1ccc(C(=O)C[n+]2cccc3c4ccccc4ccc32)cc1` has a GI50 (786-0 renal) of 18.6 µM, a TGI (786-0 renal) of 48.3 µM and a GI50 (A498 renal) of 24.1 µM. It also gave a TGI (A498 renal) of over 100 µM, a GI50 (A549 NSCLC) of 11 µM and a TGI (A549 NSCLC) of over 100 µM. The GI50 (ACHN renal) was 15.9 µM, the TGI (ACHN renal) was over 100 µM and the GI50 (BT-549 breast) was 5.68 µM. For the same compound, the TGI (BT-549 breast) was 18.9 µM, the GI50 (CAKI-1 renal) was 15.6 µM and the TGI (CAKI-1 renal) was 71.1 µM. For the same compound, the GI50 (CCRF-CEM leukemia) was 13.1 µM, the TGI (CCRF-CEM leukemia) was 70 µM and the GI50 (COLO 205 colon) was 9.03 µM. It also gave a TGI (COLO 205 colon) of 25.5 µM, a GI50 (DU-145 prostate) of 18.5 µM and a TGI (DU-145 prostate) of over 100 µM. For the same compound, the GI50 (EKVX NSCLC) was 7.26 µM, the TGI (EKVX NSCLC) was over 100 µM and the GI50 (HCC-2998 colon) was 13.6 µM. It also gave a TGI (HCC-2998 colon) of 28.3 µM, a GI50 (HCT-116 colon) of 6.64 µM and a TGI (HCT-116 colon) of 28.6 µM. For the same compound, the GI50 (HCT-15 colon) was 28.1 µM, the TGI (HCT-15 colon) was over 100 µM and the GI50 (HL-60(TB) leukemia) was 3.75 µM. It also gave a TGI (HL-60(TB) leukemia) of 21.1 µM, a GI50 (HOP-62 NSCLC) of 11.8 µM and a TGI (HOP-62 NSCLC) of over 100 µM. The GI50 (HOP-92 NSCLC) was 6.11 µM, the TGI (HOP-92 NSCLC) was 40.8 µM and the GI50 (HS 578T breast) was 15.8 µM. For the same compound, the TGI (HS 578T breast) was 83.4 µM, the GI50 (HT29 colon) was 5.6 µM and the TGI (HT29 colon) was 48.4 µM. The GI50 (IGROV1 ovarian) was 19.1 µM, the TGI (IGROV1 ovarian) was 82.5 µM and the GI50 (K-562 leukemia) was 2.45 µM. For the same compound, the TGI (K-562 leukemia) was over 100 µM, the GI50 (KM12 colon) was 16 µM and the TGI (KM12 colon) was 65 µM. For the same compound, the GI50 (LOX IMVI melanoma) was 11.2 µM, the TGI (LOX IMVI melanoma) was 24.1 µM and the GI50 (M14 melanoma) was 11.1 µM. The TGI (M14 melanoma) was 29.2 µM, the GI50 (MALME-3M melanoma) was 13.9 µM and the TGI (MALME-3M melanoma) was 27.4 µM. For the same compound, the GI50 (MCF7 breast) was 5.44 µM, the TGI (MCF7 breast) was 24.4 µM and the GI50 (MDA-MB-231 breast) was 14.4 µM. The TGI (MDA-MB-231 breast) was 40.8 µM, the GI50 (MDA-MB-435) was 14.2 µM and the TGI (MDA-MB-435) was 29.8 µM. For the same compound, the GI50 (MDA-MB-468 breast) was 1.61 µM, the TGI (MDA-MB-468 breast) was 7.72 µM and the GI50 (MOLT-4 leukemia) was 13.2 µM. It also gave a TGI (MOLT-4 leukemia) of 83.9 µM, a GI50 (NCI-H226 lung) of 5.18 µM and a TGI (NCI-H226 lung) of 42.9 µM. For the same compound, the GI50 (NCI-H23 lung) was 10.6 µM, the TGI (NCI-H23 lung) was 49 µM and the GI50 (NCI-H460 lung) was 10.5 µM. The TGI (NCI-H460 lung) was 25.8 µM, the GI50 (NCI-H522 lung) was 6.66 µM and the TGI (NCI-H522 lung) was 24.6 µM. It also gave a GI50 (NCI/ADR-RES ovarian) of over 100 µM, a TGI (NCI/ADR-RES ovarian) of over 100 µM and a GI50 (OVCAR-3 ovarian) of 6.1 µM. The TGI (OVCAR-3 ovarian) was 52.3 µM, the GI50 (OVCAR-4 ovarian) was 4.43 µM and the TGI (OVCAR-4 ovarian) was over 100 µM. The GI50 (OVCAR-5 ovarian) was 20.4 µM, the TGI (OVCAR-5 ovarian) was over 100 µM and the GI50 (OVCAR-8 ovarian) was 6.97 µM. The TGI (OVCAR-8 ovarian) was over 100 µM, the GI50 (PC-3 prostate) was 5.53 µM and the TGI (PC-3 prostate) was 59.4 µM. The GI50 (RPMI-8226 leukemia) was 3.87 µM, the TGI (RPMI-8226 leukemia) was 21.9 µM and the GI50 (RXF 393 renal) was 3.82 µM. For the same compound, the TGI (RXF 393 renal) was 21.6 µM, the GI50 (SF-268 CNS) was 17.2 µM and the TGI (SF-268 CNS) was over 100 µM. It also gave a GI50 (SF-295 CNS) of 7.05 µM, a TGI (SF-295 CNS) of 29.1 µM and a GI50 (SF-539 CNS) of 16.9 µM. The TGI (SF-539 CNS) was 58.7 µM, the GI50 (SK-MEL-2 melanoma) was 14.5 µM and the TGI (SK-MEL-2 melanoma) was 52.5 µM. For the same compound, the GI50 (SK-MEL-28 melanoma) was 14.8 µM, the TGI (SK-MEL-28 melanoma) was 32.6 µM and the GI50 (SK-MEL-5 melanoma) was 3.73 µM. For the same compound, the TGI (SK-MEL-5 melanoma) was 14.8 µM, the GI50 (SK-OV-3 ovarian) was 22.1 µM and the TGI (SK-OV-3 ovarian) was over 100 µM. It also gave a GI50 (SN12C renal) of 12.5 µM, a TGI (SN12C renal) of over 100 µM and a GI50 (SNB-19 CNS) of 18.5 µM. For the same compound, the TGI (SNB-19 CNS) was over 100 µM, the GI50 (SNB-75 CNS) was 8.73 µM and the TGI (SNB-75 CNS) was 61.9 µM. For the same compound, the GI50 (SR leukemia) was 29.7 µM, the TGI (SR leukemia) was over 100 µM and the GI50 (SW-620 colon) was 13.4 µM. The TGI (SW-620 colon) was 87.1 µM, the GI50 (T-47D breast) was 6.57 µM and the TGI (T-47D breast) was 46.2 µM. For the same compound, the GI50 (TK-10 renal) was 26.4 µM, the TGI (TK-10 renal) was over 100 µM and the GI50 (U251 CNS) was 9.32 µM. The TGI (U251 CNS) was 34.8 µM, the GI50 (UACC-257 melanoma) was 10.3 µM and the TGI (UACC-257 melanoma) was 25.7 µM. For the same compound, the GI50 (UACC-62 melanoma) was 12.6 µM, the TGI (UACC-62 melanoma) was 26.5 µM and the GI50 (UO-31 renal) was 19.9 µM. It also gave a TGI (UO-31 renal) of over 100 µM.

— PubChem BioAssay (NCI)
